Common to all, as to assay type: cell-based
Test [1] concerns AMPK. Briefly: Western blot assay for AMPK activity. To be noted: gel electrophoresis data relative to GST-gAd (FIG. 3). As for the experimental part: Western blot assays for AMPK activity were performed on compounds 1, 2, 94 and 95. FIG. 3 presents gel electrophoresis data for compounds 1, 2, 94 and 95 relative to GST-gAd.
On the technique in general: Immunoblotting shows a protein as a band on a membrane.

Test [2] concerns Human liver cells (HepG2). Briefly: Reduction of glycogen content in liver cells (Amplex Red). Conditions: HepG2 cells treated for 16 hours, Amplex Red (FIG. 4). As for the experimental part: The ability of compounds of the present invention to reduce the glycogen content in liver cells was determined using a functional assay. Human liver cells (HepG2) were seeded in a 96 well plate and on the next day were treated with compounds 1, 2, 94 and 95 for 16 hours. The glycogen content of the cells was determined using Amplex Red.

The subject of test [3] is AMPK. Kind of test: AMPK activation, enzyme-linked immunosorbent assay. In outline:
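Cell-based assay in which AMPK activity was measured as the relative concentration of phosphorylated acetyl-CoA carboxylase, a product of AMPK, by enzyme-linked immunosorbent assay. The endpoint is the EC50 for AMPK activation of each compound. EC50 values were reported in ranges: less than 1 μM, 1-10 μM, 10-20 μM, 20-50 μM, 50-100 μM, and >100 μM.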

SMILES strings stand for the structures.

Take `COc1ccc(CN2CCC(Oc3ccc(C(=O)NC4CCN(Cc5ccccc5)CC4)cc3Cl)CC2)cc1` [Compound 1, N-(1-benzylpiperidin-4-yl)-3-chloro-4-(1-(4-methoxybenzyl)piperidin-4-yloxy)benzamide]: the “AMPK activity in the western blot assay” value in the test on AMPK [1] is listed as “strong activity”. For the same compound, the “IC50 value, glycogen content” value in test [2] is “sub-micromolar”. The compound further came in with an EC50 with AMPK [3] below 1000 nM.

For `CC(C)(C)OC(=O)NCCCNC(=O)c1ccc(OC2CCN(Cc3ccc(C(F)(F)F)cc3)CC2)cc1` [Compound 95, tert-butyl 3-(4-(1-(4-(trifluoromethyl)benzyl)piperidin-4-yloxy)benzamido)propylcarbamate], the “AMPK activity in the western blot assay” value in the test on AMPK [1] was “strong activity”. Further, in test [2], the “IC50 value, glycogen content” value was “sub-micromolar”. Moreover, in the test on AMPK [3], the EC50 is below 1000 nM.

On to `COc1cc(C(=O)NCCCNC(=O)OC(C)(C)C)ccc1OC1CCN(Cc2ccc(C(F)(F)F)cc2)CC1` [Compound 94, tert-butyl 3-(3-methoxy-4-(1-(4-(trifluoromethyl)benzyl)piperidin-4-yloxy)benzamido)propylcarbamate], for which, in the test on AMPK [1], the “AMPK activity in the western blot assay” value is reported as “strong activity”. Also, the “IC50 value, glycogen content” value in test [2] is listed as “sub-micromolar”. The compound also yielded an EC50 in the test on AMPK [3] below 1000 nM.

Take `COc1cc(C(=O)NC2CCN(Cc3ccccc3)CC2)ccc1OC1CCN(Cc2ccccc2)CC1` [Compound 2, N-(1-benzylpiperidin-4-yl)-4-(1-benzylpiperidin-4-yloxy)-3-methoxybenzamide]: the “AMPK activity in the western blot assay” value with AMPK [1] was “strong activity”. Further, in test [2], the “IC50 value, glycogen content” value was “sub-micromolar”. The compound further returned an EC50 in the test on AMPK [3] below 1000 nM.

With `COC(=O)c1ccc(CN2CCC(NC(=O)c3ccc(OC4CCN(c5ccc(C(F)(F)F)cc5)CC4)c(F)c3)CC2)cc1` [Compound 33, methyl 4-((4-(3-fluoro-4-(1-(4-(trifluoromethyl)phenyl)piperidin-4-yloxy)benzamido)piperidin-1-yl)methyl)benzoate], the EC50 in the test with AMPK [3] is below 1000 nM.

With `CC(c1ccccc1)N1CCC(Oc2ccc(C(=O)NC3CCN(Cc4ccccc4)CC3)cc2F)CC1` (stereo not drawn) [Compound 21, N-(1-benzylpiperidin-4-yl)-3-fluoro-4-(1-(1-phenylethyl)piperidin-4-yloxy)benzamide], the EC50 with AMPK [3] lay in the range of 1000 to 10000 nM.

In the test with AMPK [3], `O=C(NC1CCN(Cc2ccccc2)CC1)c1ccc(OC2CCN(c3cccs3)CC2)c(Cl)c1` [Compound 10, N-(1-benzylpiperidin-4-yl)-3-chloro-4-(1-(thiophen-2-yl)piperidin-4-yloxy)benzamide] displayed an EC50 of 1000 to 10000 nM.

In the case of `N#Cc1cccc(CN2CCC(Oc3cccc(C(=O)NC4CCN(Cc5ccccc5)CC4)c3)CC2)c1` [Compound 89, N-(1-benzylpiperidin-4-yl)-3-(1-(3-cyanobenzyl)piperidin-4-yloxy)benzamide], the EC50 with AMPK [3] was in the range of 1000 to 10000 nM.

For `O=C(NC1CCN(Cc2ccc(Cl)cc2)CC1)c1ccc(OC2CCN(Cc3ccc(F)c(F)c3)CC2)c(F)c1` [Compound 71, N-(1-(4-chlorobenzyl)piperidin-4-yl)-4-(1-(3,4-difluorobenzyl)piperidin-4-yloxy)-3-fluorobenzamide], the EC50 in the test on AMPK [3] was below 1000 nM.

As to `O=C(NC1CCN(Cc2ccc(F)cc2)CC1)c1ccc(OC2CCN(c3ccc(C(F)(F)F)cc3)CC2)c(F)c1` [Compound 27, 3-fluoro-N-(1-(4-fluorobenzyl)piperidin-4-yl)-4-(1-(4-(trifluoromethyl)phenyl)piperidin-4-yloxy)benzamide], the EC50 with AMPK [3] was below 1000 nM.

`CC(C)(C)c1ccc(CN2CCC(Oc3ccc(C(=O)NC4CCN(Cc5ccccc5)CC4)cc3F)CC2)cc1` [Compound 20, N-(1-benzylpiperidin-4-yl)-3-fluoro-4-(1-(4-tert-butylbenzyl)piperidin-4-yloxy)benzamide] came in with an EC50 with AMPK [3] below 1000 nM.

As for `O=C(NC1CCN(Cc2ccc(Cl)cc2)CC1)c1ccc(OC2CCN(Cc3ccc(Cl)cc3)CC2)c(F)c1` [Compound 72, N-(1-(4-chlorobenzyl)piperidin-4-yl)-4-(1-(4-chlorobenzyl)piperidin-4-yloxy)-3-fluorobenzamide], the EC50 in the test with AMPK [3] was below 1000 nM.

Regarding `N#Cc1ccc(N2CCC(Oc3cccc(C(=O)NC4CCN(Cc5ccccc5)CC4)c3)CC2)cc1` [Compound 48, N-(1-benzylpiperidin-4-yl)-3-(1-(4-cyanophenyl)piperidin-4-yloxy)benzamide], the EC50 with AMPK [3] is below 1000 nM.

In the test with AMPK [3], `N#Cc1ccc(CN2CCC(Oc3ccc(C(=O)NC4CCN(Cc5ccccn5)CC4)cc3)CC2)cc1` [Compound 85, 4-(1-(4-cyanobenzyl)piperidin-4-yloxy)-N-(1-(pyridin-2-ylmethyl)piperidin-4-yl)benzamide] showed an EC50 below 1000 nM.

Compound `COc1cc(C(=O)NC2CCN(Cc3ccccc3)CC2)ccc1OC1CCN(c2ccco2)CC1` [Compound 12, N-(1-benzylpiperidin-4-yl)-3-methoxy-4-(1-(furan-2-yl)piperidin-4-yloxy)benzamide] had an EC50 with AMPK [3] of 1000 to 10000 nM.

As to `O=C(NC1CCN(Cc2ccccc2)CC1)c1cccc(OC2CCN(Cc3ccccc3)CC2)c1` [Compound 13, N-(1-benzylpiperidin-4-yl)-3-(1-benzylpiperidin-4-yloxy)benzamide], in the test on AMPK [3], the EC50 was in the range of 20000 to 50000 nM.

In turn, `CC(C)(C)OC(=O)N1CCC(NC(=O)c2ccc(OC3CCN(c4ccc(C(F)(F)F)cc4)CC3)c(F)c2)CC1` [Compound 26, tert-butyl 4-(3-fluoro-4-(1-(4-(trifluoromethyl)phenyl)piperidin-4-yloxy)benzamido)piperidine-1-carboxylate] returned an EC50 in the test on AMPK [3] below 1000 nM.

`CC(C)(C)OC(=O)N1CCC(NC(=O)c2ccc(OC3CCN(Cc4ccc(C#N)cc4)CC3)cc2)CC1` [Compound 78, tert-butyl 4-(4-(1-(4-cyanobenzyl)piperidin-4-yloxy)benzamido)piperidine-1-carboxylate] displayed an EC50 with AMPK [3] below 1000 nM.

As for `O=C(NC1CCN(c2ccccc2)CC1)c1ccc(OC2CCN(c3ccc(C(F)(F)F)cc3)CC2)c(F)c1` [Compound 25, 3-fluoro-N-(1-phenylpiperidin-4-yl)-4-(1-(4-(trifluoromethyl)phenyl)piperidin-4-yloxy)benzamide], in the test on AMPK [3], the EC50 is above 100000 nM.

On to `O=C(NC1CCN(C(=O)c2ccc(F)cc2)CC1)c1ccc(OC2CCN(c3ccc(C(F)(F)F)cc3)CC2)c(F)c1` [Compound 31, 3-fluoro-N-(1-(4-fluorobenzoyl)piperidin-4-yl)-4-(1-(4-(trifluoromethyl)phenyl)piperidin-4-yloxy)benzamide], for which, in the test on AMPK [3], the EC50 is below 1000 nM.

`O=C(NC1CCN(Cc2ccccc2)CC1)c1ccc(OC2CCN(Cc3ccc(Cl)cc3)CC2)c(F)c1` [Compound 64, N-(1-benzylpiperidin-4-yl)-4-(1-(4-chlorobenzyl)piperidin-4-yloxy)-3-fluorobenzamide]: the EC50 with AMPK [3] is below 1000 nM.

As to `N#Cc1ccc(CN2CCC(Oc3ccc(C(=O)NC4CCN(Cc5ccc(Cl)cc5)CC4)cc3F)CC2)cc1` [Compound 70, N-(1-(4-chlorobenzyl)piperidin-4-yl)-4-(1-(4-cyanobenzyl)piperidin-4-yloxy)-3-fluorobenzamide], in the test with AMPK [3], the EC50 is below 1000 nM.

`COc1ccc(CN2CCC(Oc3ccc(C(=O)NCCCN4CCOCC4)cc3Cl)CC2)cc1` [Compound 101, 3-chloro-4-(1-(4-methoxybenzyl)piperidin-4-yloxy)-N-(3-morpholinopropyl)benzamide] came in with an EC50 with AMPK [3] of 10000 to 20000 nM.

Take `N#Cc1ccc(CN2CCC(Oc3ccc(C(=O)NC4CCN(Cc5ccccc5)CC4)cc3Cl)CC2)cc1` [Compound 67, N-(1-benzylpiperidin-4-yl)-3-chloro-4-(1-(4-cyanobenzyl)piperidin-4-yloxy)benzamide]: the EC50 in the test with AMPK [3] was below 1000 nM.

In turn, `O=C(NC1CCN(Cc2ccccc2)CC1)c1ccc(OC2CCN(Cc3cccc(C(F)(F)F)c3)CC2)c(F)c1` [Compound 59, N-(1-benzylpiperidin-4-yl)-3-fluoro-4-(1-(3-(trifluoromethyl)benzyl)piperidin-4-yloxy)benzamide] came in with a concentration giving a half-maximal response (EC50) in the test on AMPK [3] below 1000 nM.

In the test on AMPK [3], `O=C(NC1CCN(Cc2ccccc2)CC1)c1ccc(OC2CCN(c3ccc(C(F)(F)F)cc3)CC2)c(F)c1` [Compound 23, N-(1-benzylpiperidin-4-yl)-3-fluoro-4-(1-(4-(trifluoromethyl)phenyl)piperidin-4-yloxy)benzamide] gave an EC50 below 1000 nM.

Regarding `O=C(NC1CCN(Cc2ccccc2)CC1)c1ccc(OC2CCN(Cc3ccc(Cl)cc3)CC2)c(Cl)c1` [Compound 65, N-(1-benzylpiperidin-4-yl)-3-chloro-4-(1-(4-chlorobenzyl)piperidin-4-yloxy)benzamide], the EC50 in the test on AMPK [3] is below 1000 nM.

With `Cc1ccc(CN2CCC(Oc3ccc(C(=O)NCCCN4CCOCC4)cc3)CC2)cc1` [Compound 104, 4-(1-(4-methylbenzyl)piperidin-4-yloxy)-N-(3-morpholinopropyl)benzamide], in the test with AMPK [3], the EC50 was 10000 to 20000 nM.

The compound `O=C(NC1CCN(Cc2ccccc2)CC1)c1cc(Cl)c(OC2CCN(Cc3ccc(F)c(F)c3)CC2)c(Cl)c1` [Compound 76, N-(1-benzylpiperidin-4-yl)-3,5-dichloro-4-(1-(3,4-difluorobenzyl)piperidin-4-yloxy)benzamide] yielded a concentration giving a half-maximal response (EC50) in the test on AMPK [3] below 1000 nM.

For `O=C(c1ccc(OC2CCN(Cc3ccccc3)CC2)cc1)N1CCN(c2ccccc2)CC1` [Compound 103, (4-(1-benzylpiperidin-4-yloxy)phenyl)(4-phenylpiperazin-1-yl)methanone], in the test with AMPK [3], the EC50 lay in the range of 20000 to 50000 nM.

For `N#Cc1ccc(CN2CCC(Oc3ccc(C(=O)NC4CCN(Cc5ccccc5)CC4)c(Cl)c3)CC2)cc1` [Compound 51, N-(1-benzylpiperidin-4-yl)-2-chloro-4-(1-(4-cyanobenzyl)piperidin-4-yloxy)benzamide], the EC50 in the test on AMPK [3] is below 1000 nM.

For orientation: EC50 means the concentration giving half of the maximal effect. Read a high EC50 as weaker potency.

Values taken from patent US8697727B2, “N-substituted-heterocycloalkyloxybenzamide compounds and methods of use” (Rigel Pharmaceuticals, Inc., priority 2006, dated 2014).
